US10189859B2, “Derivatives of 6-(2,3-dichlorophenyl)-1,2,4-triazin-5-amine” (Nektar Therapeutics, priority 2013, dated 2019)
pIC50: −log10 of the molar value. Counter-ions that a name gives are not always drawn. Like-named read-outs stand apart in the source and are kept apart here.

Columns and labels:
[1] = Pharmacokinetics after intravenous or oral dosing, plasma LC/MS/MS; assay type: in vivo; conditions: fasted male Sprague Dawley rats
Method: Fasted, male Sprague Dawley rats were dosed intravenously or orally. Blood samples were collected at pre-determined time points and plasma was separated. Test article concentrations were determined in plasma by a LC/MS/MS method. Non compartmental analysis was performed to estimate the area under the plasma concentration vs. time curve (AUC). Clearance parameters (CL), bioavailabilities (F) and half-lives were calculated.

[2] = biological target: Nav1.7 sodium channels (human SCN9A gene) (Homo sapiens (Human), UniProt Q15858); test: Automated patch clamp (IonWorks Barracuda) of Nav1.7 stably expressed in CHO cells; assay type: cell-based
Nav1.7 sodium channels (human SCN9A gene), sequence (Q15858 whole entry): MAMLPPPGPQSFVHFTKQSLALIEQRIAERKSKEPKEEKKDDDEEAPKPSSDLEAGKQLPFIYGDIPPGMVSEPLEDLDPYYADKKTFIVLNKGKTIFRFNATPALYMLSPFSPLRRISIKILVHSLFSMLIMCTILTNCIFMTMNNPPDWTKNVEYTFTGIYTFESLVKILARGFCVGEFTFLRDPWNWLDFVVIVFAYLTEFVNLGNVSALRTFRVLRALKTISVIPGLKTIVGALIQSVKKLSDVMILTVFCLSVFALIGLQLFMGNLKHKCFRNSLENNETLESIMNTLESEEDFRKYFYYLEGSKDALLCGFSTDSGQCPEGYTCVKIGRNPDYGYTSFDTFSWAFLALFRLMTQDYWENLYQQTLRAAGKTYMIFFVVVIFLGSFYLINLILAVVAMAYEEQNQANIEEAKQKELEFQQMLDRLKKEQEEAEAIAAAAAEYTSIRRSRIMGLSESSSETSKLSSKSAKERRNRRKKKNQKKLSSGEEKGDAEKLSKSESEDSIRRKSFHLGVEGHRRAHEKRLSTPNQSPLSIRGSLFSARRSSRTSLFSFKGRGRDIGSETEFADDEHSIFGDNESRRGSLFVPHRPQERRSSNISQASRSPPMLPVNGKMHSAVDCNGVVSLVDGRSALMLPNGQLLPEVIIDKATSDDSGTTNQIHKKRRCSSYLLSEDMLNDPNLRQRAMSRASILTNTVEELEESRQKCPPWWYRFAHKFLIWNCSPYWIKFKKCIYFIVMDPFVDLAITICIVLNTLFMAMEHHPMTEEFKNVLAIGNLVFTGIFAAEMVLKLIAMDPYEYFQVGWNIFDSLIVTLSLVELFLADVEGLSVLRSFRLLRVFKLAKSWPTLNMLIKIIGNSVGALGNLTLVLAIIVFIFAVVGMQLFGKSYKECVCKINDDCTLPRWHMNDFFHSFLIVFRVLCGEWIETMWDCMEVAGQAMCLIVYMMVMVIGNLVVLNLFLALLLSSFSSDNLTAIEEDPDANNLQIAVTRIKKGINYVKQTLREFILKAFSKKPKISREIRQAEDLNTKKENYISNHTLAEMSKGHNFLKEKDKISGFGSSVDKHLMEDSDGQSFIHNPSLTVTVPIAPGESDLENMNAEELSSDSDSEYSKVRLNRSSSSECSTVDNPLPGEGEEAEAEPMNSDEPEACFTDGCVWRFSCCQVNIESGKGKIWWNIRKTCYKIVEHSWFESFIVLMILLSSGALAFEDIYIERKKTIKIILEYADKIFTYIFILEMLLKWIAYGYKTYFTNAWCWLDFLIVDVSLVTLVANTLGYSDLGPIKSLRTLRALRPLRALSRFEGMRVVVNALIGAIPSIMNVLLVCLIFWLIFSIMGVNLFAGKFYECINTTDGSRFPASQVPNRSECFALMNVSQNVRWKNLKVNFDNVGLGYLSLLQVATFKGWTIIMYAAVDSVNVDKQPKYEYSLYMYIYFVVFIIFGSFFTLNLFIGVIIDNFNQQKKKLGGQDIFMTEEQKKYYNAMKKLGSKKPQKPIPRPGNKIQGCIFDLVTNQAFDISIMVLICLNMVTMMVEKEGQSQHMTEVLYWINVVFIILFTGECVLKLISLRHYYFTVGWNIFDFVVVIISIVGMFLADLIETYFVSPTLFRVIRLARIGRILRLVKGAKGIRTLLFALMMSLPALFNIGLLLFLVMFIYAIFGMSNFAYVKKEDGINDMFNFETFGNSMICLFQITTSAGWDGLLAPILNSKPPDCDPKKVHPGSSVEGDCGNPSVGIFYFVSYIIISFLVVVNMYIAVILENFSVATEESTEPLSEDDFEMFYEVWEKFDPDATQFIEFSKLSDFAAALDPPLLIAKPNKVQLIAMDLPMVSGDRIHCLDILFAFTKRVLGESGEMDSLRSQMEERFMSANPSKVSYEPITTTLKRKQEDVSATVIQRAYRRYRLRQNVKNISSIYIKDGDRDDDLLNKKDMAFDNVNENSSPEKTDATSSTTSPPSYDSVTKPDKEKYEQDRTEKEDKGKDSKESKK
Method: The potencies of the compounds provided herein to block specific Na+ channels was measured using automated patch clamp electrophysiologically of Nav1.7 sodium channels (human SCN9A gene) stably expressed in CHO cells using the IonWorks™ Barracuda system. Currents were measured from the whole cell patch configuration. From a holding potential of −90 mV, membranes were subjected to a 200 ms pre-pulse to −120 mV, then pulsed to 0 mV to measure blockade of the tonic (resting) state. Inactivated state block was elicited by repolarization to −100 mV (20 ms pulse duration), followed by depolarization to 0 mV (20 ms pulse duration). Peak inward Na+ currents were measured in the presence of vehicle or various concentrations of the test compound to determine the percent block of current. Concentration-response relationships were used to calculate IC50 values for the illustrative compounds.

[3] = inactivated state block, CHO cells, read-out: Inactivated state IC50
[4] = tonic (resting) state block, CHO cells, read-out: Tonic state IC50
[5] = read-out: Inactivated state IC50

With COC[C@@H](O)COC1CN(c2nnc(-c3cccc(Cl)c3Cl)c(N)n2)C1 [Compound 75, (R)-1-((1-(5-Amino-6-(2,3-dichlorophenyl)-1,2,4-triazin-3-yl)azetidin-3-yl)oxy)-3-methoxypropan-2-ol] the “pharmacokinetics (qualitative ranking of the compounds tested)” value (“pharmacokinetics” for short) [1] was “most favorable pharmacokinetics” and the “exposure after oral dosing (qualitative ranking)” value (“exposure after oral dosing” below) [1] was “best exposure after oral dosing”.
In the case of Nc1nc(N2CCN(CC(O)COC(F)(F)F)CC2)nnc1-c1cccc(Cl)c1Cl (stereo not shown) [Compound 27, 1-(4-(5-Amino-6-(2,3-dichlorophenyl)-1,2,4-triazin-3-yl)piperazin-1-yl)-3-(trifluoromethoxy)propan-2-ol], the “pharmacokinetics” value [1] was “most favorable pharmacokinetics” and the “exposure after oral dosing” value [1] was “best exposure after oral dosing”.
For CC(CO)Nc1nnc(-c2cccc(Cl)c2Cl)c(N)n1 (stereo not shown) [Compound 182, 2-((5-amino-6-(2,3-dichlorophenyl)-1,2,4-triazin-3-yl)amino)propan-1-ol], the “exposure after oral dosing” value [1] was “best exposure after oral dosing”.
For CC(CO)(CO)Nc1nnc(-c2cccc(Cl)c2Cl)c(N)n1 [Compound 47, 2-((5-Amino-6-(2,3-dichlorophenyl)-1,2,4-triazin-3-yl)amino)-2-methylpropane-1,3-diol], the “exposure after oral dosing” value [1] was “best exposure after oral dosing”.
With Nc1nc(N2CCN(C[C@@H](O)COCC(F)(F)F)CC2)nnc1-c1cccc(Cl)c1Cl [Compound 94, (R)-1-(4-(5-amino-6-(2,3-dichlorophenyl)-1,2,4-triazin-3-yl)-piperazin-1-yl)-3-(2,2,2-trifluoroethoxy)-propan-2-ol] the “pharmacokinetics” value [1] was “most favorable pharmacokinetics” and the “exposure after oral dosing” value [1] was “best exposure after oral dosing”.
For C[C@@H]1CN(c2nnc(-c3cc(F)cc(Cl)c3Cl)c(N)n2)C[C@H](C)N1 [Compound 119, 3-N-(3′,5′-dimethylpiperazin-1-yl) 5′-fluoro lamotrigine], the “exposure after oral dosing” value [1] was “best exposure after oral dosing”.
For Nc1nc(N2CCN(C3CCOCC3)CC2)nnc1-c1cccc(Cl)c1Cl [Compound 120, 3-N-(4-(tetrahydro-2H-pyran-4-yl)piperazin-1-yl) lamotrigine di HCl], the “pharmacokinetics” value [1] was “most favorable pharmacokinetics” and the “exposure after oral dosing” value [1] was “best exposure after oral dosing”.
With C[C@@H]1CN(c2nnc(-c3cccc(Cl)c3Cl)c(N)n2)C[C@H](C)N1 [Compound 118, 3-N-(3′,5′-dimethylpiperazin-1-yl) lamotrigine] the “exposure after oral dosing” value [1] was “best exposure after oral dosing”.
With Nc1nc(NCCOCCOCCOC(F)F)nnc1-c1cccc(Cl)c1Cl [Compound 57, 6-(2,3-Dichlorophenyl)-N^3-(2-(2-(2-(difluoromethoxy)ethoxy)ethoxy)ethyl)-1,2,4-triazine-3,5-diamine] the “exposure after oral dosing” value [1] was “best exposure after oral dosing”.
In the case of COCCOCC(C)(CO)Nc1nnc(-c2cccc(Cl)c2Cl)c(N)n1 (stereo not shown) [Compound 49, 2-((5-Amino-6-(2,3-dichlorophenyl)-1,2,4-triazin-3-yl)amino)-3-(2-methoxyethoxy)-2-methylpropan-1-ol], the “exposure after oral dosing” value [1] was “best exposure after oral dosing”.
With COC(=O)[C@@H]1C[C@@H](O)CN1c1nnc(-c2cccc(Cl)c2Cl)c(N)n1 [Compound 65, (2S,4R)-Methyl 1-(5-amino-6-(2,3-dichlorophenyl)-1,2,4-triazin-3-yl)-4-hydroxypyrrolidine-2-carboxylate] the “pharmacokinetics” value [1] was “most favorable pharmacokinetics” and the “exposure after oral dosing” value [1] was “best exposure after oral dosing”.
In the case of Nc1nc(N2CC(O)C2)nnc1-c1cccc(Cl)c1Cl [Compound 129, 3-N-(3-hydroxyazetin-1-yl) lamotrigine], the “pharmacokinetics” value [1] was “most favorable pharmacokinetics” and the “exposure after oral dosing” value [1] was “best exposure after oral dosing”.
With Nc1nc(N2CCN(C[C@H](O)COCC3CCC3)CC2)nnc1-c1cccc(Cl)c1Cl [Compound 80, (2S)-1-{4-[5-Amino-6-(2,3-dichlorophenyl)-1,2,4-triazin-3-yl]piperazin-1-yl}-3-(cyclobutylmethoxy)propan-2-ol] the pIC50 [2, 3] was > 4.30 and the pIC50 [2, 4] was 4.15.
With Nc1nc(NC(CO)CO)nnc1-c1cccc(Cl)c1Cl [Compound 20, 2-((5-Amino-6-(2,3-dichlorophenyl)-1,2,4-triazin-3-yl)amino)propane-1,3-diol] the pIC50 [2, 3] was < 3.52 and the pIC50 [2, 4] was < 3.70.
In the case of Nc1nc(N2CCN3CCOC[C@@H]3C2)nnc1-c1cccc(Cl)c1Cl [Compound 131, (S)-6-(2,3-dichlorophenyl)-3-(hexahydropyrazino[2,1-c][1,4]oxazin-8(1H)-yl)-1,2,4-triazin-5-amine di HCl salt], the pIC50 [2, 5] was 3.73 and the pIC50 ([2]; read-out: Tonic state IC50) was < 3.70.
In the case of Nc1nc(N2CC(OCC(F)(F)F)C2)nnc1-c1cccc(Cl)c1Cl [Compound 99, 6-(2,3-dichlorophenyl)-3-(3-(2,2,2-trifluoroethoxy)azetidin-1-yl)-1,2,4-triazin-5-amine.HCl salt], the “exposure after oral dosing” value [1] was “best exposure after oral dosing”.
For CN(CCN(C)c1nnc(-c2cccc(Cl)c2Cl)c(N)n1)C(=O)COCC(N)=O [Compound 192, 2-(2-amino-2-oxoethoxy)-N-(2-((5-amino-6-(2,3-dichlorophenyl)-1,2,4-triazin-3-yl)(methyl)amino)ethyl)-N-methylacetamide], the pIC50 [2, 3] was < 3.52 and the pIC50 [2, 4] was < 3.70.
With COCCOCCOCCN1C(C)CN(c2nnc(-c3cccc(Cl)c3Cl)c(N)n2)CC1C (stereo not shown) [Compound 111, 3-N-(4-N-mPEG3-3,5-dimethylpiperazinyl) lamotrigine] the pIC50 [2, 3] was > 4.30 and the pIC50 [2, 4] was < 3.70.
With COC[C@@H](O)CNC1CN(c2nnc(-c3cccc(Cl)c3Cl)c(N)n2)C1 [Compound 163, (S)-1-((1-(5-amino-6-(2,3-dichlorophenyl)-1,2,4-triazin-3-yl)azetidin-3-yl)amino)-3-methoxypropan-2-ol] the pIC50 [2, 3] was < 3.52 and the pIC50 [2, 4] was < 3.70.
With Nc1nc(N2CC(O)(C(F)(F)F)C2)nnc1-c1cccc(Cl)c1Cl [Compound 165, 3-N-(3-hydroxy-3-trifluoromethyl)azetidinyl lamotrigine] the “exposure after oral dosing” value [1] was “best exposure after oral dosing”.
With COCCNCCOCCNc1nnc(-c2cccc(Cl)c2Cl)c(N)n1 [Compound 173, 6-(2,3-dichlorophenyl)-N3-(2-(2-((2-methoxyethyl)amino)ethoxy)ethyl)-1,2,4-triazine-3,5-diamine] the pIC50 [2, 3] was 3.67 and the pIC50 [2, 4] was < 3.70.
With CN(CCOCCNc1cnc(-c2cccc(Cl)c2Cl)c(N)n1)CC(N)=O [Compound 191, 2-((2-(2-((6-amino-5-(2,3-dichlorophenyl)pyrazin-2-yl)amino)ethoxy)ethyl)-(methyl)amino)acetamide] the pIC50 [2, 3] was 3.61 and the pIC50 [2, 4] was < 3.70.
For CN(CCO)c1nnc(-c2cccc(Cl)c2Cl)c(N)n1 [Compound 185, 2-((5-amino-6-(2,3-dichlorophenyl)-1,2,4-triazin-3-yl)(methyl)amino)ethanol], the pIC50 [2, 5] was 3.76 and the pIC50 ([2]; read-out: Tonic state IC50) was < 3.70.
With COC(=O)CNCCOCCNc1nnc(-c2cccc(Cl)c2Cl)c(N)n1 [Compound 199, methyl 2-((2-(2-((5-amino-6-(2,3-dichlorophenyl)-1,2,4-triazin-3-yl)amino)ethoxy)ethyl)amino)acetate] the pIC50 [2, 5] was < 3.52 and the pIC50 ([2]; read-out: Tonic state IC50) was < 3.70.
In the case of COC[C@@H](O)CN(C)CC1CN(c2nnc(-c3cccc(Cl)c3Cl)c(N)n2)C1 [Compound 160, (S)-1-(((1-(5-amino-6-(2,3-dichlorophenyl)-1,2,4-triazin-3-yl)azetidin-3-yl)methyl)(methyl)amino)-3-methoxypropan-2-ol], the pIC50 [2, 3] was 3.53 and the pIC50 [2, 4] was < 3.70.
For CC(C)(C)OC(=O)COCCN1CCN(c2nnc(-c3cccc(Cl)c3Cl)c(N)n2)CC1 [Compound 203, tert-butyl 2-(2-(4-(5-amino-6-(2,3-dichlorophenyl)-1,2,4-triazin-3-yl)piperazin-1-yl)ethoxy)acetate], the pIC50 [2, 3] was > 4.30 and the pIC50 [2, 4] was 4.06.
In the case of COC[C@@H](O)CNC1(C)CCN(c2nnc(-c3cccc(Cl)c3Cl)c(N)n2)C1 (stereo partly drawn) [Compound 162, (2S)-1-((1-(5-amino-6-(2,3-dichlorophenyl)-1,2,4-triazin-3-yl)-3-methylpyrrolidin-3-yl)amino)-3-methoxypropan-2-ol], the pIC50 [2, 3] was 3.71 and the pIC50 [2, 4] was < 3.70.
In the case of COCCOCCOCC(C)CNc1nnc(-c2cccc(Cl)c2Cl)c(N)n1 (stereo not shown) [Compound 177, 6-(2,3-dichlorophenyl)-N3-(3-(2-(2-methoxyethoxy)ethoxy)-2-methylpropyl)-1,2,4-triazine-3,5-diamine], the pIC50 [2, 3] was > 4.30 and the pIC50 [2, 4] was < 3.70.
With CN(CCNc1nnc(-c2cccc(Cl)c2Cl)c(N)n1)C[C@H](O)C(F)(F)F [Compound 148, (S)-3-((2-((5-amino-6-(2,3-dichlorophenyl)-1,2,4-triazin-3-yl)amino)ethyl)(methyl)amino)-1,1,1-trifluoropropan-2-ol] the pIC50 [2, 3] was > 4.30 and the pIC50 [2, 4] was 3.83.
For COCCOCCOCC(=O)N1CCN(c2nnc(-c3cccc(Cl)c3Cl)c(N)n2)CC1 [Compound 105, 3-N-mPEG2-CM-piperazinyl lamotrigine], the pIC50 [2, 3] was < 3.52 and the pIC50 [2, 4] was < 3.70.
